This assay concerns the target Beta-lactamase/penicillinase (Bacillus sp.). The assay can be described thus: Inhibitory activity against Beta-lactamase from Bacillus sp. using penicillin G as substrate.

Drawing on BindingDB's records for doi:10.1021/jm00391a032 (1987), this text covers IC50 for seven compounds.

With `CCOC(=O)c1cnnn1C[C@@]1(C)[C@H](C(=O)O)C2C(=O)CC2S1(=O)=O` (some centres not stated), the IC50 was 340 nM.
Next, `CCOC(=O)c1cn(C[C@@]2(C)[C@H](C(=O)O)C3C(=O)CC3S2(=O)=O)nn1` (some centres not stated): 54 nM.
Next, `C[C@]1(Cn2cc(N)nn2)[C@H](C(=O)O)C2C(=O)CC2S1(=O)=O` (some centres not stated): 700 nM; `C[C@]1(Cn2cc([Si](C)(C)C)nn2)[C@H](C(=O)O)C2C(=O)CC2S1(=O)=O` (some centres not stated): 510 nM; `C[C@]1(Cn2nncc2C(=O)O)[C@H](C(=O)O)C2C(=O)CC2S1(=O)=O` (some centres not stated): 1700 nM.
In the case of `COC(=O)c1cnnn1C[C@@]1(C)[C@H](C(=O)O)C2C(=O)CC2S1(=O)=O` (some centres not stated) it was 300 nM.
Turning to `COC(=O)c1nnn(C[C@@]2(C)[C@H](C(=O)O)C3C(=O)CC3S2(=O)=O)c1C(=O)OC` (some centres not stated), half-maximal inhibition (IC50) required 300 nM.
